Experimental data reported in patent publication US20120058208A1 (SYNTHITE INDUSTRIES LTD., priority 2010, published 2012).

Experiments:
[1] = given dose 50 mg/kg; adjuvant given with curcumin; cited from earlier work
HCT-116 human xenograft = experiment: In vivo anti-cancer activity in human colorectal (HCT-116) xenograft model in SCID mice
Protocol: Human colorectal (HCT-116) xenograft model in SCID mice
Five-week-old female mice purchased from the Advanced Centre for Treatment, Research and Education in Cancer (ACTREC) were used for in vivo experiments. The Institutional Animal Ethics Committee (IAEC) approved the in vivo study. Animals were injected with 1×10^6 HCT-116 cells subcutaneously in the flank region. Animals were monitored daily during the period between inoculation and palpable tumor growth. Tumor size was measured with a digital Vernier caliper and tumor-bearing mice were randomized into control and treatment groups (n=8), when the tumor volume was attained ˜100 mm^3. […] Tumor volume and was body weight was measured twice weekly. The following formula was used to calculate the tumor volume: Tumor volume=[…]. Percent reduction in tumor growth was calculated with respect to the Vehicle treated group.

For `O=C(/C=C/C=C/c1ccc2c(c1)OCO2)N1CCCCC1` [piperine], the “enhancement of the bioavailability of curcumin” value [1] is listed as 33%.

With `O=C(CCCCCCC(=O)Nc1ccccc1)NO` [Vorinostat] the “% Redn. (percent reduction in tumor growth with respect to the Vehicle treated group)” value (HCT-116 human xenograft; 150 mg/kg oral once daily for 28 days) was 47%, the “Tumor volume, Mean ± SE, Day 0” value (HCT-116 human xenograft; 150 mg/kg oral once daily, Day 0) was 131.6 ± 23.1 mm^3 and the “Tumor volume, Mean ± SE, Day 4” value (HCT-116 human xenograft; 150 mg/kg oral once daily, Day 4) was 236.6 ± 42.7 mm^3. The “Tumor volume, Mean ± SE, Day 8” value (HCT-116 human xenograft; 150 mg/kg oral once daily, Day 8) was 334.4 ± 52.3 mm^3, the “Tumor volume, Mean ± SE, Day 12” value (HCT-116 human xenograft; 150 mg/kg oral once daily, Day 12) was 460.6 ± 76.0 mm^3 and the “Tumor volume, Mean ± SE, Day 16” value (HCT-116 human xenograft; 150 mg/kg oral once daily, Day 16) was 544.6 ± 79.1 mm^3. For the same molecule, the “Tumor volume, Mean ± SE, Day 19” value (HCT-116 human xenograft; 150 mg/kg oral once daily, Day 19) was 669.6 ± 107.0 mm^3, the “Tumor volume, Mean ± SE, Day 22” value (HCT-116 human xenograft; 150 mg/kg oral once daily, Day 22) was 726.0 ± 120.8 mm^3 and the “Tumor volume, Mean ± SE, Day 26” value (HCT-116 human xenograft; 150 mg/kg oral once daily, Day 26) was 916.6 ± 157.9 mm^3. The “Tumor volume, Mean ± SE, Day 29” value (HCT-116 human xenograft; 150 mg/kg oral once daily, Day 29) was 979.1 ± 157.2 mm^3.

In the case of `CCCCC[C@H](O)CC(=O)CCc1ccc(O)c(OC)c1` [gingerol], the “enhancement of the bioavailability of curcumin” value [1] is listed as 43%.
